{"source": "PubChem BioAssay AID1896", "about": "(NMMLSC, 2009)", "note": "Active and inactive are the calls of the source. How the calls were made is not given here."}
{"molecular_target": "Mitogen-activated protein kinase kinase kinase 3 (Homo sapiens) (UniProt Q99759)", "sequence (Q99759 whole entry, looked up)": "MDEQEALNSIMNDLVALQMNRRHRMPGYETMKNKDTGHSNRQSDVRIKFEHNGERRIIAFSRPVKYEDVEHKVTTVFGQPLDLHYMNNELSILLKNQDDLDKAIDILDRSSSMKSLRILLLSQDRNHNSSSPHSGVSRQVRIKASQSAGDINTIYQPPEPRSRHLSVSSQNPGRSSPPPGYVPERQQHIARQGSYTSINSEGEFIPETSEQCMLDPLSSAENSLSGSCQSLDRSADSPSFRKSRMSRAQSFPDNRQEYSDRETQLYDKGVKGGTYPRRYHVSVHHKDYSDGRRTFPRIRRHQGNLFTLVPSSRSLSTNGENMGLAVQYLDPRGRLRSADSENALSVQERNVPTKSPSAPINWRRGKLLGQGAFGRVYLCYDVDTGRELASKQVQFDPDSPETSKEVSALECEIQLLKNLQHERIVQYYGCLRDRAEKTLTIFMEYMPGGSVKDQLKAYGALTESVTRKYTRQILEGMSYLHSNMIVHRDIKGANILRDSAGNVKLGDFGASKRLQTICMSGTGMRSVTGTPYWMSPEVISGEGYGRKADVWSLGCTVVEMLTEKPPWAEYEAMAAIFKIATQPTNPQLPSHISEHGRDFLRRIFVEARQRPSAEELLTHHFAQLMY", "test": "inhibitors of MEK5 binding to MEKK3, dose response, biochemical, bead multiplex flow cytometry, wildtype (AID 1896)", "details": "bead-based multiplex flow cytometry, MEK5-MEKK3 PB1 binding"}
{"smiles": "C#CCOCCOCCOCCNc1nc(N2CCN(C(=O)[C@H](Cc3ccc(O)cc3)n3cc([C@@H](N)CC(C)C)nn3)CC2)nc(N2CCN(C(=O)[C@H](Cc3ccc(O)cc3)n3cc([C@@H](N)CC(C)C)nn3)CC2)n1", "EC50": "> 30 µM (inactive)"}
{"smiles": "Nc1ccc(Nc2ccccc2N)cc1", "EC50": "21.1 µM"}
{"smiles": "COc1ccc(N2CC(C(=O)Nc3nnc(SCc4ccccn4)s3)CC2=O)cc1", "note": "(stereo not given)", "EC50": "> 30 µM (inactive)"}
{"smiles": "Cc1c2cc(O)c(=O)cc-2oc2cc(O)c(O)cc12", "EC50": "> 30 µM (inactive)"}
{"smiles": "CCCOc1ccc2c(c1)C(=NN=C(N)N)c1cc(OCCC)ccc1-2", "EC50": "> 30 µM (inactive)"}
{"smiles": "C/C(=N\\NC(=O)c1cc(O)cc(O)c1)c1ccc(NC(=O)Cc2ccccc2)cc1", "EC50": "> 30 µM (inactive)"}
{"smiles": "COC(=O)C1=C(C)N(Cc2ccccc2)C(=NCc2cccc(C(F)(F)F)c2)N[C@H]1c1cccc(F)c1", "EC50": "> 30 µM (inactive)"}
{"smiles": "Cc1nc(N)sc1-c1csc(Nc2ncccn2)n1", "EC50": "> 30 µM (inactive)"}
{"smiles": "CC(C)N=c1cc2n(-c3ccc(Cl)cc3)c3ccccc3nc-2cc1Nc1ccc(Cl)cc1", "EC50": "> 30 µM (inactive)"}
{"smiles": "O=C(c1cc(COc2c(F)cccc2F)on1)N1C[C@H]2CC[C@H]1C2", "EC50": "> 30 µM (inactive)"}
{"smiles": "N#CC(C#N)=c1ccc2c(c1)N1C(c3ccccc3)=CC(c3ccccc3)C3CCCCC31N=2", "note": "(stereo not given)", "EC50": "1.63 µM"}
{"smiles": "CCN(Cc1ccccc1)S(=O)(=O)c1ccc(C(=O)N(CCCN(C)C)c2nc3ccc(F)cc3s2)cc1", "EC50": "> 30 µM (inactive)"}
{"smiles": "CCN1CCN(Cc2ccc(NC(=O)c3ccc(C)c(NC(=O)C(=O)c4c[nH]c5ccccc45)c3)cc2C(F)(F)F)CC1", "EC50": "> 30 µM (inactive)"}
{"smiles": "CCCCCCCCCCOC(=O)Cn1c(COc2ccccc2OC)[n+](C)c2ccccc21", "EC50": "> 30 µM (inactive)"}
{"smiles": "Cc1ccc(-c2csc(NC(=O)C[n+]3cc(-c4ccc(C)cc4)n4c3CCC4)n2)cc1", "EC50": "> 30 µM (inactive)"}
{"smiles": "CN(c1ccccc1)c1ccc(/C=c2\\s/c(=C(/C#N)C(=O)C(C)(C)C)n(Cc3ccco3)c2=O)cc1", "EC50": "0.34 µM"}
{"smiles": "CCN1/C(=C/C(C)=C/c2sc3ccccc3[n+]2CC)Sc2ccccc21", "EC50": "1.01 µM"}
{"smiles": "COc1ccc(CSc2n[nH]c(C)n2)cc1[N+](=O)[O-]", "EC50": "> 30 µM (inactive)"}
{"smiles": "COc1ccc(-n2nc3c(N)n[nH]c3cc2=O)cc1", "EC50": "1.13 µM"}
{"smiles": "Brc1ccc(N=C/C=C/C=C/Nc2ccc(Br)cc2)cc1", "EC50": "10.6 µM"}
{"smiles": "C=CC#CC[N+]1(CC#Cc2ccccc2)CCOCC1", "EC50": "> 30 µM (inactive)"}
{"smiles": "CCCCCCCCCCCCCCCC[n+]1cccc2ccccc21", "EC50": "> 30 µM (inactive)"}
{"smiles": "CN(C)CCNc1ncnc2c1sc1nc(-c3ccccc3)c3c(c12)CCCC3", "EC50": "> 30 µM (inactive)"}
{"smiles": "CN1C(=CC=C2C=C(I)C(=O)C(I)=C2)C(C)(C)c2ccccc21", "EC50": "> 30 µM (inactive)"}
{"smiles": "COc1cc(/C=N/NC(=O)c2cc3ccccc3cc2O)ccc1OCCN1CCCCC1", "EC50": "> 30 µM (inactive)"}
{"smiles": "CN(C)CCCNc1cc(C(C)(C)C)nc2c(-c3ccc(Cl)cc3)cnn12", "EC50": "> 30 µM (inactive)"}
{"smiles": "CCc1ccc(Nc2n[n+](-c3ccccc3)c(-c3ccc(OC)c(Br)c3)s2)cc1", "EC50": "> 30 µM (inactive)"}
{"smiles": "COc1ccc(C(CCNCc2ccc(OC(C)C)cc2)c2ccccc2OC)cc1", "note": "(stereo not given)", "EC50": "> 30 µM (inactive)"}
{"smiles": "c1ccc(CNc2nc(NCc3ccccc3)c3ccccc3n2)cc1", "EC50": "> 30 µM (inactive)"}
{"smiles": "COc1ccc(-c2cc(C#N)nc(N3CCNCC3)n2)cc1", "EC50": "> 30 µM (inactive)"}
{"smiles": "Cc1ccc(CN2CCSc3ccc(C(=O)NC4CCN(Cc5ccccc5)CC4)cc32)cc1", "EC50": "> 30 µM (inactive)"}
{"smiles": "C=CCN1C(=O)/C(=C/c2ccc(-c3ccc(F)cc3)o2)SC1=S", "EC50": "> 30 µM (inactive)"}
{"smiles": "NC(=O)CSc1nnc(Cc2ccc3c(c2)OCO3)o1", "EC50": "> 30 µM (inactive)"}
{"smiles": "COc1ccc2nc(C)cc(N/N=C/c3cccc(OC)c3O)c2c1", "EC50": "> 30 µM (inactive)"}
{"molecular_target": "Mitogen-activated protein kinase kinase kinase 3 (Homo sapiens) (UniProt Q99759)", "test": "inhibitors of MEK5 binding to MEKK3, dose response, biochemical, bead multiplex flow cytometry, wildtype (AID 1896)", "details": "bead-based multiplex flow cytometry, MEK5-MEKK3 PB1 binding; measured here: Ki from EC50", "units": {"Ki": "µM"}}
{"smiles": "Nc1ccc(Nc2ccccc2N)cc1", "Ki": 18.1}
{"smiles": "N#CC(C#N)=c1ccc2c(c1)N1C(c3ccccc3)=CC(c3ccccc3)C3CCCCC31N=2", "note": "(stereo not given)", "Ki": 1.4}
{"smiles": "CN(c1ccccc1)c1ccc(/C=c2\\s/c(=C(/C#N)C(=O)C(C)(C)C)n(Cc3ccco3)c2=O)cc1", "Ki": 0.29}
{"smiles": "CCN1/C(=C/C(C)=C/c2sc3ccccc3[n+]2CC)Sc2ccccc21", "Ki": 0.86}
{"smiles": "COc1ccc(-n2nc3c(N)n[nH]c3cc2=O)cc1", "Ki": 0.97}
{"smiles": "Brc1ccc(N=C/C=C/C=C/Nc2ccc(Br)cc2)cc1", "Ki": 9.04}
